Assay [1] deals with ovariectomized rats. As to the kind of experiment: Genistein dose-ranging preclinical study: bone mineral density of the right femur by dual-energy X-ray absorptiometry. In kind it is in vivo, Sprague-Dawley rats. The protocol:
(§1) This study was carried out to evaluate the effects of different human dose equivalents of genistein (aglycone) alone, or in combination with supplemental calcium carbonate and vitamin D3, on bone density, markers, and histology in ovariectomized rats. Forty-eight three month old ovariectomized (OVX) female Sprague-Dawley rats were purchased from Charles River Laboratories. Animals were maintained in plastic cages under standard environmental conditions with water and standard rat chow available ad libitum at the Animal Facility of the Department of Clinical and Experimental Medicine and Pharmacology of the University of Messina, Messina, Italy. After 1 week of acclimation, animals were randomly assigned to 12 different treatment groups that lasted for 6 weeks as summarized in Table 1 below:
(§2) Genistein doses were converted into human equivalents by using the following formula: (human dose in mg/m^2)=(kin)×(dose in mg/kg) where human m^2 for a person of 60 kg (considered as a medium weight for our cohort of post-menopausal women) is 1.62 and km is the conversion factor (for a rat of 250 gr is 7.0) {Freireich, 1966 4611/id. Genistein was diluted in a 1:1 solution of 0.9% NaCl and DMSO and administered by intraperitoneal injection. Animals received 50% supplementation of their normal daily intake of calcium and vitamin D3 (50.4 IU/kg/day) by oral gavage, which equated to 366.52 mg/kg/day of calcium and 50.4 IU/kg/day of vitamin D3.
(§3) Bone mineral density of the right femur was measured using dual-energy X-ray absorptiometry. The coefficient of variation for femur BMD was 1.16%. Animals were maintained under controlled conditions for 6 weeks, at the end of the experiments were sacrificed under general anaesthesia (with chloral hydrate 400 mg/kg/ip) after blood collection by cardiac puncture. Blood was centrifuged and serum stored immediately at −20° C. for analysis. Serum was used to quantify markers of bone resorption [soluble receptor activator of nuclear factor kappaB ligand (sRANKL) and C-terminal telopeptide (CTX)] and formation [bone-specific alkaline phosphatase and osteoprotegerin (OPG)].

A further assay has as its system post-menopausal women. As to conditions: administered for one year to post-menopausal women; Morabito et al. 2002; cited from earlier work.
Assay [2] has as its system ovariectomized (OVX) female Sprague-Dawley rats. The experiment in a line: Genistein bone architecture study: femoral head histology. In kind it is in vivo. As to conditions: human equivalent dose of 54 mg/day (4.76 mg/kg/day i.p.), photomicrographs, preliminary evidence, to approximately that of non-ovariectomized animal. From the text: Three month old ovariectomized (OVX) female Sprague-Dawley rats were purchased from Charles River Laboratories. Animals were maintained in plastic cages under standard environmental conditions with water and standard rat chow available ad libitum at the Animal Facility of the Department of Clinical and Experimental Medicine and Pharmacology of the University of Messina, Messina, Italy.
Dose Calculation—Genistein doses were converted into animal equivalents by using the following formula: (human dose in mg/m^2)=(km)×(dose in mg/kg) where human m^2 for a person of 60 kg (considered as a medium weight for our cohort of post-menopausal women) is 1.62 and km is the conversion factor (for a rat of 250 gr is 7.0) {Freireich, 1966 4611/id}. Therefore, animals given the human equivalent of 54 mg/day were administered 4.76 mg/kg/day. Genistein was diluted in a 1:1 solution of 0.9% NaCl and DMSO and administered by intraperitoneal injection in a volume of […].
Histology—Rat femora decalcified in 4% EDTA for approximately 1 week and then processed for routine paraffin embedding following standard procedures. Sections were cut at the femoral head just proximal to the coxofemoral joint and stained with hematoxylin and eosin.

For assay [3], the system named is ovariectomized rats. The experiment in a line: Genistein dose-ranging preclinical study: serum markers of bone resorption and formation. In kind it is in vivo, Sprague-Dawley rats. The protocol: as §1, §2, §3
The subject of assay [4] is younger postmenopausal women. As to conditions: 10 000 U vitamin D3/wk added to calcium 1000 mg/d, postmenopausal women (age: 56 y); Cooper et al. 2003; cited from earlier work.
For assay [5] the following is noted: vitamin D3 added to estrogen therapy; Tuppurainen et al. 1998; cited from earlier work.
The conditions of assay [6]: Ensrud et al., J Bone Miner Res. 2004; cited from earlier work.
Where [7] appears, read: serum, OVX rats, genistein 0-1000 mg/day human dose equivalents i.p., 6 weeks, p<0.001, FIG. 1.

These results are taken from US9486438B2, “Combination dosage forms and therapies for supporting bone health” (Primus Pharmaceuticals Inc., priority 2008, dated 2016).

Regarding `O=c1c(-c2ccc(O)cc2)coc2cc(O)cc(O)c12` [genistein, 4′,5,7-trihydroxyisoflavone], the “BMD when supplemented with vitamin D3 and calcium” value in the assay with ovariectomized rats [1] (equivalent of 54 mg genistein per day, only group showing it) is “statistically significant preservation”. Also, the bone mineral density result with ovariectomized rats [1] (femur, OVX rats, genistein i.p., 6 weeks, p<0.001, FIG. 2) is listed as “increases”. For the same compound, in the assay on ovariectomized rats [1] (genistein 27, 200, 500 and 1,000 mg human equivalent doses, even worsened in some instances), the “BMD when supplemented with vitamin D3 or calcium” value is “no improvement”. In the assay with ovariectomized rats [1] (genistein at 54 mg/day and above (human dose equivalents)), the “BMD over 6 weeks in calcium and vitamin D3-replete rats” value is reported as “significant increases”. Also, in the assay on post-menopausal women, the bone mineral density result is “improve” and the “several biochemical markers of bone health” value is “improve”. Besides, the “trabecular architecture (trabecular rod number and thickness) of femoral head” value in assay [2] is “restores trabecular architecture”. For the same compound, the RANKL/OPG ratio entry in the assay on ovariectomized rats [3] (OVX rats, genistein i.p., 6 weeks, p<0.001, FIG. 3) is “decreased”. For the same compound, the “dose at which the genistein effect reached a plateau” value with ovariectomized rats [3] (bone markers, BMD and RANKL/OPG ratio, no further significant improvement beyond this dose by post-hoc testing) is 54 mg human dose equivalent. In the assay with ovariectomized rats [3] (setting [7]), the “Bone specific alkaline phosphatase (marker of bone formation)” value is on record as “dose-dependently increased”, the “CTX (marker of bone resorption)” value is given as “decreased”, the “osteoprotegerin (marker of bone formation)” value is “dose-dependently increased” and the “sRANKL (marker of bone resorption)” value is “decreased”.

As for `C=C1CC[C@H](O)C/C1=C/C=C1\CCC[C@]2(C)[C@@H]([C@H](C)CCCC(C)C)CC[C@@H]12` [vitamin D3], in assay [4], the “bone mineral density beyond calcium supplementation alone” value is “did not confer benefits”. Further, in assay [5], the “lumbar or femoral bone mineral density changes” value is on record as “no statistically significant improvement”.

Take `NCCCC(O)(P(=O)(O)O)P(=O)(O)O` [alendronate]: the “reducing fractures beyond 5 years of treatment” value in assay [6] is recorded as “no benefit”.
